The source of these data is ChEMBL document CHEMBL1126699, “Structure-activity relationships in 1,4-benzodioxan-related compounds. 4. Effect of aryl and alkyl substituents at position 3 on alpha-adrenoreceptor blocking activity” (J Med Chem, 1993).

Assay [1] has as its target T1, Adrenergic receptor alpha-1 (Rattus norvegicus, UniProt P15823+P23944+P43140).
T1 sequence (P15823 whole entry): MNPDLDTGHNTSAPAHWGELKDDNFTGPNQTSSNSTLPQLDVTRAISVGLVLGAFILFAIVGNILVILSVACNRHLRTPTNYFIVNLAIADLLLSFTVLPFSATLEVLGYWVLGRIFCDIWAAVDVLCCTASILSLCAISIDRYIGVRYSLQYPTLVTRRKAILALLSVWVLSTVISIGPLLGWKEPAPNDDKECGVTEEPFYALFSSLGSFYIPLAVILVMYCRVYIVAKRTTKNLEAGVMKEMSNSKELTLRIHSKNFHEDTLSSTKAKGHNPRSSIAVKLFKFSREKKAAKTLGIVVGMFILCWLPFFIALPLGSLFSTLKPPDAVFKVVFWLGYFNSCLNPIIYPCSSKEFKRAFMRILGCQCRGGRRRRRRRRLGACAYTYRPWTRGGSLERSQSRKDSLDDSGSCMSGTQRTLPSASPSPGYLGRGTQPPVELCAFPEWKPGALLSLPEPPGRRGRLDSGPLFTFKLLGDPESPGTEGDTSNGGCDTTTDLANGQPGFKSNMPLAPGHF
T1 sequence (P23944 whole entry): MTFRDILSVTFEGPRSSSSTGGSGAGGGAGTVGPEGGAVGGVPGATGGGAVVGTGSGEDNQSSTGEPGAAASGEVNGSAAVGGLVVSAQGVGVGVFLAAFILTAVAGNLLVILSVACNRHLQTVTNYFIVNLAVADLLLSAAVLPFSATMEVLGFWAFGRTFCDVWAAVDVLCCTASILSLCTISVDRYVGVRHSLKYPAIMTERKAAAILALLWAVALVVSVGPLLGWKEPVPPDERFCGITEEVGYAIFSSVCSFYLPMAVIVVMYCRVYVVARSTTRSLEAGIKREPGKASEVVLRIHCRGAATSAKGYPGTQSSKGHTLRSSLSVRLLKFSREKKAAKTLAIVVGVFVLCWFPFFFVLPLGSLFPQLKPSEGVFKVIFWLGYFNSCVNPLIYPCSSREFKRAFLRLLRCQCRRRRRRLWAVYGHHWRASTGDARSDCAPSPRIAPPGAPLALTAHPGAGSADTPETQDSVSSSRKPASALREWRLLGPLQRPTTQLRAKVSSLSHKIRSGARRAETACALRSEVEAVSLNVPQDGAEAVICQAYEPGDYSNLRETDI
T1 sequence (P43140 whole entry): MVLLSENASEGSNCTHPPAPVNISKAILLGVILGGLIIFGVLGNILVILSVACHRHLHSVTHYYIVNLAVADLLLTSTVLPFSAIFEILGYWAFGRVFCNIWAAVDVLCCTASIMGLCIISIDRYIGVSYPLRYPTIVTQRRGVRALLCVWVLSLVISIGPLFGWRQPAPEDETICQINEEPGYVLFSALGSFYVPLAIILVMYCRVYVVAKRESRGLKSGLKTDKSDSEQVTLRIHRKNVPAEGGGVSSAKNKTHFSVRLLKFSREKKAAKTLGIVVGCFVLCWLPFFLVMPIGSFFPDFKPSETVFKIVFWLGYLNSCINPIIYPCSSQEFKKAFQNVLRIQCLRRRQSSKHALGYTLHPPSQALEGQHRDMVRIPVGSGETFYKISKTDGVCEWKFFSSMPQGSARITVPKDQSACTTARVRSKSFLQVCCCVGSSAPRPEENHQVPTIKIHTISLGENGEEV
Put plainly: Ex vivo alpha-1-adrenoceptor blocking activity by antagonism of (-)-norepinephrine -induced contractions of the epididymal portion of isolated rat vas deferens. Type of assay: functional.

The target in assay [2] is Adrenergic receptor alpha (Rattus norvegicus) (UniProt P15823+P23944+P43140+P22086+P19328+P22909). Put plainly: Selectivity ratio is the antilog of the difference between pA2 values at alpha1- and alpha2- adrenoceptors.
In assay [3] the target is T2, Adrenergic receptor alpha-2 (Rattus norvegicus, UniProt P22086+P19328+P22909).
T2 sequence (P22086 whole entry): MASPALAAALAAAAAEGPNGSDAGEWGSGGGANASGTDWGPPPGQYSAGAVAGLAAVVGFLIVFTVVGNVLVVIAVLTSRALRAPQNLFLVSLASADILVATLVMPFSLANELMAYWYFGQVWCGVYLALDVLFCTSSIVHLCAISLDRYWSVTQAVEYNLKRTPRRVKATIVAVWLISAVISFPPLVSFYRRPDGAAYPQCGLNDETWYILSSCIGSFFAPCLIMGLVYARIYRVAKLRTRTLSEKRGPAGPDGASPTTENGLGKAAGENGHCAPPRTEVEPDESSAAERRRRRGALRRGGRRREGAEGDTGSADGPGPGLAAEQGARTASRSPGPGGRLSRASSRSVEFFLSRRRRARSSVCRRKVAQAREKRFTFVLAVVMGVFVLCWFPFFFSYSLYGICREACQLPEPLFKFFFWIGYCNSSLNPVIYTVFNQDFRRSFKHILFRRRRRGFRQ
T2 sequence (P19328 whole entry): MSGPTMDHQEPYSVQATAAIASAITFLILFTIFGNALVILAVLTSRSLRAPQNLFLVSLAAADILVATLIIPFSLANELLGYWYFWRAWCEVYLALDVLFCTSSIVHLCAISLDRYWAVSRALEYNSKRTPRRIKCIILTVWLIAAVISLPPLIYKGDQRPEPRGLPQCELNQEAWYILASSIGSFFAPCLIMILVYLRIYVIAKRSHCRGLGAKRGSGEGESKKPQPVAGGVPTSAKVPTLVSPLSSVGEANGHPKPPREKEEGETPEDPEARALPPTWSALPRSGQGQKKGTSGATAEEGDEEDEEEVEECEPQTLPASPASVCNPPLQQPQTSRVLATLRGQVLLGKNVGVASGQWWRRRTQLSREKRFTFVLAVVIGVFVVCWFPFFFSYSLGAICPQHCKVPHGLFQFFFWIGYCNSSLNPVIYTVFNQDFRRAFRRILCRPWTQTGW
T2 sequence (P22909 whole entry): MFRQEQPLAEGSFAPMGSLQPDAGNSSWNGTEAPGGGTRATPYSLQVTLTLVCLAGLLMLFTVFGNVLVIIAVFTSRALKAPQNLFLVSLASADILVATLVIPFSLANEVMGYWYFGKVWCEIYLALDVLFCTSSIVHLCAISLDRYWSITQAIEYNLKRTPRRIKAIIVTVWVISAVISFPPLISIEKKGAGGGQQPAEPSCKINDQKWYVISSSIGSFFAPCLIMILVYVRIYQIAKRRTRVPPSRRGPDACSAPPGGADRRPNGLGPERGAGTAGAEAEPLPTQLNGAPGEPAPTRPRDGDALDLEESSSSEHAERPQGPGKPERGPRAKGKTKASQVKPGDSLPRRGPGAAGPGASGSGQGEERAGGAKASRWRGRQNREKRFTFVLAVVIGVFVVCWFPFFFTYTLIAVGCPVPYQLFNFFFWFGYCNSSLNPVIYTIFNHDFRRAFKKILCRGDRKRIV
As to the kind of experiment: Tested for the alpha-2-adrenoceptor blocking activity by antagonism of clonidine-induced depression of the twitch responses of the field-stimulated prostatic portion of isolated rat vas deferens; at concentration 30 uM. Type of assay: functional.

The target of assay [4] is T2, Adrenergic receptor alpha-2. Put plainly: Tested for the alpha-2-adrenoceptor blocking activity by antagonism of clonidine-induced depression of the twitch responses of the field-stimulated prostatic portion of isolated rat vas deferens. Type of assay: functional, tissue-based.
Assay [5] has the same target. As to the kind of experiment: Tested for the alpha-2-adrenoceptor blocking activity by antagonism of clonidine-induced depression of the twitch responses of the field-stimulated prostatic portion of isolated rat vas deferens; inactive uM. Type of assay: functional.
The target is the same in assay [6]. Put plainly: Tested for the alpha-2-adrenoceptor blocking activity by antagonism of clonidine-induced depression of the twitch responses of the field-stimulated prostatic portion of isolated rat vas deferens (inactive up to 30 uM). Type of assay: functional, tissue-based.

Broadly, the pA2 is the negative logarithm of the molar antagonist concentration that doubles the agonist concentration needed for the same response.

Consider `COc1cccc(OC)c1OCCNC[C@H]1Oc2ccccc2O[C@H]1c1ccc(C)cc1`, for which the pA2 in assay [1] is 7.1; in assay [3] it was 5.24. Also, in assay [2], the Ratio was 73.

Regarding `COc1cccc(OC)c1OCCNC[C@H]1Oc2ccccc2O[C@H]1C`, the figures for the pA2 in assay [4] and in assay [1] were 5.7 and 8.5, respectively. Besides, the Ratio in assay [2] was 630.

`COc1cccc(OC)c1OCCNC[C@H]1Oc2ccccc2O[C@@H]1C(C)C`: the pA2 in assay [4] is listed as 5.94; in assay [1] it was 6.57. Also, the Ratio in assay [2] came to 4.

As for `CCc1ccc([C@H]2Oc3ccccc3O[C@@H]2CNCCOc2c(OC)cccc2OC)cc1`, the figures for the pA2 in assay [1] and in assay [5] were 7.82 and less than 4.52, respectively. In addition, the Ratio in assay [2] is greater than 2000.

Take `COc1ccc([C@H]2Oc3ccccc3O[C@@H]2CNCCOc2c(OC)cccc2OC)cc1`: the pA2 in assay [1] was 8.67; in assay [5], less than 4.52. Moreover, in assay [2], the Ratio was greater than 14000.

Consider `COc1cccc(OC)c1OCCNC[C@H]1Oc2ccccc2O[C@H]1C(C)C`, for which the results for the pA2 in assay [4] and in assay [1] were 5.76 and 5.94, respectively. The Ratio in assay [2] turned out to be 2.

`COc1cccc(OC)c1OCCNC[C@H]1Oc2ccccc2O[C@H]1c1ccc(Cl)cc1`: the figures for the pA2 in assay [1] and in assay [3] were 7.09 and 4.76, respectively. Further, in assay [2], the Ratio was 210.

For the compound `COc1cccc(OC)c1OCCNC[C@H]1Oc2ccccc2O[C@@H]1c1ccc(C)cc1`, the pA2 in assay [4] is on record as 4.37; in assay [1], 8.69. In addition, the Ratio in assay [2] stood at 21000.

For the compound `COc1cccc(OC)c1OCCNC[C@H]1Oc2ccccc2O[C@@H]1c1ccc(O)cc1`, the pA2 in assay [1] worked out at 7.84; in assay [3] it was 4.82. The Ratio in assay [2] was 1000.

For `COc1cccc(OC)c1OCCNCC1COc2ccccc2O1` (stereo unspecified), the pA2 turned out to be 6.39 in assay [4] and 9.26 in assay [1]. For the same compound, the Ratio in assay [2] was 740.

`COc1cccc(OC)c1OCCNC[C@H]1Oc2ccccc2O[C@@H]1c1ccccc1`: the values for the pA2 in assay [4] and in assay [1] were 4.18 and 8.39, respectively. Moreover, the Ratio in assay [2] is 16000.

For the compound `COc1cccc(OC)c1OCCNC[C@H]1Oc2ccccc2O[C@@H]1C`, the results for the pA2 in assay [4] and in assay [1] were 6.46 and 7.94, respectively. Besides, the Ratio in assay [2] is 30.

For `COc1cccc(OC)c1OCCNC[C@H]1Oc2ccccc2O[C@@H]1C1CCCCC1`, the values for the pA2 in assay [1] and in assay [6] were 6.09 and less than 4.52, respectively. Further, the Ratio in assay [2] is greater than 40.

Take `COc1cccc(OC)c1OCCNC[C@H]1Oc2ccccc2O[C@@H]1c1ccc(Cl)cc1`: the pA2 turned out to be 8.15 in assay [1] and 5.17 in assay [3]. The Ratio in assay [2] turned out to be 1000.

Take `COc1cccc(OC)c1OCCNC[C@H]1Oc2ccccc2O[C@@H]1c1ccc(OC(C)=O)cc1`: the figures for the pA2 in assay [4] and in assay [1] were 4.87 and 8.12, respectively. For the same compound, the Ratio in assay [2] came out at 2600.

For `COc1cccc(OC)c1OCCNC[C@H]1Oc2ccccc2O[C@H]1C1CCCCC1`, the figures for the pA2 in assay [1] and in assay [6] were 6.2 and less than 4.52, respectively. For the same compound, the Ratio in assay [2] is greater than 50.

For the compound `CCc1ccc([C@@H]2Oc3ccccc3O[C@@H]2CNCCOc2c(OC)cccc2OC)cc1`, the pA2 in assay [1] is reported as 7.23; in assay [5] it was less than 4.52. Besides, the Ratio in assay [2] is greater than 500.
